Laboratory results reported in the kinase profiling compilation of Christmann-Franck et al. (2016).

Experiments:
Test in all cases: radiometric filter-binding kinase assay, Kinase HotSpot
Conditions in all cases: compound 0.5 µM; ATP 10 µM
CAMK2G (human) = CAMK2G (human) (UniProt Q13555)
NEK4 (human) = NEK4 (human) (UniProt P51957)
EPHB4 (human) = EPHB4 (human) (UniProt P54760)
NEK11 (human) = NEK11 (human) (UniProt Q8NG66)
ABL1 (human) = ABL1 (human) (UniProt P00519)
GSK3A (human) = GSK3A (human) (UniProt P49840)
MAP3K10 (human) = MAP3K10 (human) (UniProt Q02779)
EPHA4 (human) = EPHA4 (human) (UniProt P54764)
SLK (human) = SLK (human) (UniProt Q9H2G2)
BRSK2 (human) = BRSK2 (human) (UniProt Q8IWQ3)
MAP4K5 (human) = MAP4K5 (human) (UniProt Q9Y4K4)
WNK2 (human) = WNK2 (human) (UniProt Q9Y3S1)
Chain of WNK2 (human) (Q9Y3S1 whole entry, looked up): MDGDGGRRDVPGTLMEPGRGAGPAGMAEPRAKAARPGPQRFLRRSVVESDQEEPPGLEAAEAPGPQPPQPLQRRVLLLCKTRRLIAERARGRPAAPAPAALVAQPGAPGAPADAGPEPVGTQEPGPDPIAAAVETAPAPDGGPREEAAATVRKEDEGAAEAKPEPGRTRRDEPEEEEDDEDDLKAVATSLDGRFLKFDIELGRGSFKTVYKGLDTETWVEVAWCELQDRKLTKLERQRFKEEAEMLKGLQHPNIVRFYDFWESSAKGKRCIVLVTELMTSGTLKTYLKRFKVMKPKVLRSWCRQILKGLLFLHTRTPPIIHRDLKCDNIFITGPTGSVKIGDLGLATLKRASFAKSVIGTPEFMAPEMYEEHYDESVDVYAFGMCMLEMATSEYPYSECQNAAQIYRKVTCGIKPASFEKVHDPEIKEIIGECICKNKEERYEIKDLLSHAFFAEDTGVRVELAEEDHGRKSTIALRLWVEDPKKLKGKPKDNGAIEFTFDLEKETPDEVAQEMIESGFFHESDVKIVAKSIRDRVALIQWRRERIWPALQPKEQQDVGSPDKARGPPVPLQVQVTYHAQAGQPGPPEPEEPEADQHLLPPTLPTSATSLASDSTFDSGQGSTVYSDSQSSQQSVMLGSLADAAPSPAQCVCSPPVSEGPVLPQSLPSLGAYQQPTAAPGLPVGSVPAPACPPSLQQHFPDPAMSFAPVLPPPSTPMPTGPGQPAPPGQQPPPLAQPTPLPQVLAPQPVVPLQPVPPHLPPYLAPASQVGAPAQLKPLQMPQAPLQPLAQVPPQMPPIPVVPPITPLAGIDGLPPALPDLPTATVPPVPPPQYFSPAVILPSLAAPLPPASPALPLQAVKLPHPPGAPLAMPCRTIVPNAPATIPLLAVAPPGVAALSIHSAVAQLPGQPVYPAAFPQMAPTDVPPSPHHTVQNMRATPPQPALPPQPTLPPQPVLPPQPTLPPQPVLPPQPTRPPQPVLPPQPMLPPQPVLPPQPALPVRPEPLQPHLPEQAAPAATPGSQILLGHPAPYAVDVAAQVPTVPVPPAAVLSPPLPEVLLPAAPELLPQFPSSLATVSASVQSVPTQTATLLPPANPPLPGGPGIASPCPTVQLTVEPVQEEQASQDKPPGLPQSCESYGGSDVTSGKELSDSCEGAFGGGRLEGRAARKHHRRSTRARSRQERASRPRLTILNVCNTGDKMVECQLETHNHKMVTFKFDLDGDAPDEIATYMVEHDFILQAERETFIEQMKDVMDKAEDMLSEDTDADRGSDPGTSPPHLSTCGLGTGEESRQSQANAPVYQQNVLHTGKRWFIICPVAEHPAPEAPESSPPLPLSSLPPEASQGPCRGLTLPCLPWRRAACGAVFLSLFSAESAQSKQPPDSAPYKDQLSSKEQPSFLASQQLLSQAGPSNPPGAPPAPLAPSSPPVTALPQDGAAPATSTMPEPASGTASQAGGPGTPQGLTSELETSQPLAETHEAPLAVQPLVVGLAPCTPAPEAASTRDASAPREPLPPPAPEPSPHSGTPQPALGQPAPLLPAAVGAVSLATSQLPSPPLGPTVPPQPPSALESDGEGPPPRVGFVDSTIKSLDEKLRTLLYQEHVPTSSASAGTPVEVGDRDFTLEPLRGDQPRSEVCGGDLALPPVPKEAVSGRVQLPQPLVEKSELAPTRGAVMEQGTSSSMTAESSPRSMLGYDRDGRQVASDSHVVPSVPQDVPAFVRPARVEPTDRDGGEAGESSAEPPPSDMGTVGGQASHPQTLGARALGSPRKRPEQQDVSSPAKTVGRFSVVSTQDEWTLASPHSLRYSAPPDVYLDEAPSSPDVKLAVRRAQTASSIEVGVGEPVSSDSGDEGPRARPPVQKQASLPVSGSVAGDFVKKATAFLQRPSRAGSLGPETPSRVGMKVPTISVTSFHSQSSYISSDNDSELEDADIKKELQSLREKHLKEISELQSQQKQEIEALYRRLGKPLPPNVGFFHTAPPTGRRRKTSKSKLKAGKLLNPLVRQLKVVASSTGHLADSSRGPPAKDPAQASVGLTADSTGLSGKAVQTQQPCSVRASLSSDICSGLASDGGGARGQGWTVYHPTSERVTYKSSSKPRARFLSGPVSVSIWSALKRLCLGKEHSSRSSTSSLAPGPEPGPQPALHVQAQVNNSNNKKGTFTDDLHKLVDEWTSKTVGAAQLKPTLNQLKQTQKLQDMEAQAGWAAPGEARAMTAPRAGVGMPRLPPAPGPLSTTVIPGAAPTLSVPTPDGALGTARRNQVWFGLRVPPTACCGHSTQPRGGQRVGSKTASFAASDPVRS

CSF1R (human) = CSF1R (human) (UniProt P07333)
HIPK1 (human) = HIPK1 (human) (UniProt Q86Z02)
CDK3 CCNE1 (human) = CDK3 CCNE1 (human) (UniProt Q00526+P24864)
Chain of CDK3 CCNE1 (human) (P24864 whole entry, looked up): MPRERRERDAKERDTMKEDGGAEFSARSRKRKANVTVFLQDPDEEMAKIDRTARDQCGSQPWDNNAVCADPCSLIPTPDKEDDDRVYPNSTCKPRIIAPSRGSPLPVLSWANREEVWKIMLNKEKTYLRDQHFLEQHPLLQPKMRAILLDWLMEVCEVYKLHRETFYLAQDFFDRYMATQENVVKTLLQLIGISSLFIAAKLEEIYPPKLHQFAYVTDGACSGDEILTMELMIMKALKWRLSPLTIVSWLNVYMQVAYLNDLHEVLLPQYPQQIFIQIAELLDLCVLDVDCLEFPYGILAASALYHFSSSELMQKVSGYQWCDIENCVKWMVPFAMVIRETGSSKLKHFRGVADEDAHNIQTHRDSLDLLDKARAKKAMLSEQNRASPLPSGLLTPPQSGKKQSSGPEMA
Chain of CDK3 CCNE1 (human) (Q00526 whole entry, looked up): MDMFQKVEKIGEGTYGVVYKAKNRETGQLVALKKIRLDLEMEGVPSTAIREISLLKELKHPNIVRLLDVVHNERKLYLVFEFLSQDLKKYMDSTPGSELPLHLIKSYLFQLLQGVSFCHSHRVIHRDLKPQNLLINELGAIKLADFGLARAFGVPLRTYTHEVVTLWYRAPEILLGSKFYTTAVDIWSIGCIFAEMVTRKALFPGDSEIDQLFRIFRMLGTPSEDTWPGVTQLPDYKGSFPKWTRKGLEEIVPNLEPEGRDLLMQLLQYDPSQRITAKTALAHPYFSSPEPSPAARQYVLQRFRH

PLK2 (human) = PLK2 (human) (UniProt Q9NYY3)
PTK6 (human) = PTK6 (human) (UniProt Q13882)
Chain of PTK6 (human) (Q13882 whole entry, looked up): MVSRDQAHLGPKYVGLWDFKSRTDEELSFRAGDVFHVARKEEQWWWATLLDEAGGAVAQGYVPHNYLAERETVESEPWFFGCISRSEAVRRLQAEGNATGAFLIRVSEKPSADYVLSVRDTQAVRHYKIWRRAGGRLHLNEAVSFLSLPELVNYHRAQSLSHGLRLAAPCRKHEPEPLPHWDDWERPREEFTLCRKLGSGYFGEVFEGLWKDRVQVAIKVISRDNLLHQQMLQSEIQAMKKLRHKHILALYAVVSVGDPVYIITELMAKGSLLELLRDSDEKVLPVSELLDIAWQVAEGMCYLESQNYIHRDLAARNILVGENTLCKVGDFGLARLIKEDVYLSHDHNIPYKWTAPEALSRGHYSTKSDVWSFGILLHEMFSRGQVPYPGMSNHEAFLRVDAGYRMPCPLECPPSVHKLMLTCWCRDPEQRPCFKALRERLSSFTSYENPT

RPS6KA2 KD1 KD2 (human) = RPS6KA2 KD1 KD2 (human) (UniProt Q15349)
CDK7 CCNH MNAT1 (human) = CDK7 CCNH MNAT1 (human) (UniProt P50613+P51948+P51946)
CDK6 CCND3 (human) = CDK6 CCND3 (human) (UniProt P30281+Q00534)
CAMK1G (human) = CAMK1G (human) (UniProt Q96NX5)
PTK2B (human) = PTK2B (human) (UniProt Q14289)
CDK6 CCND1 (human) = CDK6 CCND1 (human) (UniProt Q00534+P24385)
CDK9 CCNK (human) = CDK9 CCNK (human) (UniProt O75909+P50750)
MAP2K2 (human) = MAP2K2 (human) (UniProt P36507)
Chain of MAP2K2 (human) (P36507 whole entry, looked up): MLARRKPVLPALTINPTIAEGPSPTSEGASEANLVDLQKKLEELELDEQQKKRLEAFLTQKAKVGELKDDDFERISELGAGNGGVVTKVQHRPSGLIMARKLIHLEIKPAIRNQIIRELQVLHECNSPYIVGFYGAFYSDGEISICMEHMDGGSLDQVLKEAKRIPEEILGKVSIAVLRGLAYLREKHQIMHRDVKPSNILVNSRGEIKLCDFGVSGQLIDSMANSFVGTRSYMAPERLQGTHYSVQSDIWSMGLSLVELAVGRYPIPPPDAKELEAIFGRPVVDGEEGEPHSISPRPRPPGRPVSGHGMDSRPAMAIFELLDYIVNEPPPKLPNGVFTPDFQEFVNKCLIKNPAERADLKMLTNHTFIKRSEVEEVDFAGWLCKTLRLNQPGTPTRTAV

CLK1 (human) = CLK1 (human) (UniProt P49759)
SRMS (human) = SRMS (human) (UniProt Q9H3Y6)
MERTK (human) = MERTK (human) (UniProt Q12866)
SRC (human) = SRC (human) (UniProt P12931)
MAP3K2 (human) = MAP3K2 (human) (UniProt Q9Y2U5)
TAOK2 (human) = TAOK2 (human) (UniProt Q9UL54)
Chain of TAOK2 (human) (Q9UL54 whole entry, looked up): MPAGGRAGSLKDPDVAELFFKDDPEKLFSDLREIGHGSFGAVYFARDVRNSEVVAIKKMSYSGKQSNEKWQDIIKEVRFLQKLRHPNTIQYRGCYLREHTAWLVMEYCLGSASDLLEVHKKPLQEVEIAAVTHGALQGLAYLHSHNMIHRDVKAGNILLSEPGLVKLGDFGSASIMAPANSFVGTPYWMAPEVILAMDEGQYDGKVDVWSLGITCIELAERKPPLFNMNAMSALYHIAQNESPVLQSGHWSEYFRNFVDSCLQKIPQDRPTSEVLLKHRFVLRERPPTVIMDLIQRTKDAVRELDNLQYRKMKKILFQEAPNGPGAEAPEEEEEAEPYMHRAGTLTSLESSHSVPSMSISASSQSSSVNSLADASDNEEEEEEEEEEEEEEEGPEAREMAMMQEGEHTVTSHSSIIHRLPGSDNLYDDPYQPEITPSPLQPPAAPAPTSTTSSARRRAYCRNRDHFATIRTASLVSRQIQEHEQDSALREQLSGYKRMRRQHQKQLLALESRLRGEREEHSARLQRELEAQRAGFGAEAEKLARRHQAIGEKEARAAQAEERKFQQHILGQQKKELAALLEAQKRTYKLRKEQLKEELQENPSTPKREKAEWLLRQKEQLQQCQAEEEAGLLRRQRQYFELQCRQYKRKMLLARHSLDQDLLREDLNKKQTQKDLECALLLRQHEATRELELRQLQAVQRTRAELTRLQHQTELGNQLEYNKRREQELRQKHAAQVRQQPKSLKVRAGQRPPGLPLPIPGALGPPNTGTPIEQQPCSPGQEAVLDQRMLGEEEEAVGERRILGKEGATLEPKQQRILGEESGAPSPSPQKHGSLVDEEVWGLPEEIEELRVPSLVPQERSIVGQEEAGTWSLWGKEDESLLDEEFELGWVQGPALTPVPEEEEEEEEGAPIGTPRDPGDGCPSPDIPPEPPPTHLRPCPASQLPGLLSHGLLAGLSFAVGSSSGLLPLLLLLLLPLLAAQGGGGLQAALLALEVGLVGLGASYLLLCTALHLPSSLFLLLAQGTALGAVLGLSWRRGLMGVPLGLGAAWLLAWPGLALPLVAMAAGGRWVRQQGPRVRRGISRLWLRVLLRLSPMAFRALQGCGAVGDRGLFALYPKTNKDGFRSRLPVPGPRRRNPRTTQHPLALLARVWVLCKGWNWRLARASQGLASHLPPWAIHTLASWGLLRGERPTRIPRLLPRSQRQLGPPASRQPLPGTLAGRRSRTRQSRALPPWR

CAMK2D (human) = CAMK2D (human) (UniProt Q13557)
TEC (human) = TEC (human) (UniProt P42680)
RPS6KA5 KD2 (human) = RPS6KA5 KD2 (human) (UniProt O75582)
FGFR2 (human) = FGFR2 (human) (UniProt P21802)
DYRK1A (human) = DYRK1A (human) (UniProt Q13627)
TSSK2 (human) = TSSK2 (human) (UniProt Q96PF2)
RPS6KA4 KD2 (human) = RPS6KA4 KD2 (human) (UniProt O75676)
FYN (human) = FYN (human) (UniProt P06241)
ACVRL1 (human) = ACVRL1 (human) (UniProt P37023)
CSNK1A1 (human) = CSNK1A1 (human) (UniProt P48729)

O=c1cc(N2CCOCC2)oc2c1ccc1ccccc12
residual activity (CAMK2G (human)): 95.5% | residual activity (NEK4 (human)): 97.4% | residual activity (EPHB4 (human)): 96.3% | residual activity (NEK11 (human)): 99.1% | residual activity (ABL1 (human)): 104% | residual activity (GSK3A (human)): 97.1% | residual activity (MAP3K10 (human)): 102% | residual activity (EPHA4 (human)): 94.4% | residual activity (SLK (human)): 102% | residual activity (BRSK2 (human)): 92.6% | residual activity (MAP4K5 (human)): 103% | residual activity (WNK2 (human)): 103% | residual activity (CSF1R (human)): 103% | residual activity (HIPK1 (human)): 102% | residual activity (CDK3 CCNE1 (human)): 102% | residual activity (PLK2 (human)): 106% | residual activity (PTK6 (human)): 101% | residual activity (RPS6KA2 KD1 KD2 (human)): 98.8% | residual activity (CDK7 CCNH MNAT1 (human)): 98.2% | residual activity (CDK6 CCND3 (human)): 95.1% | residual activity (CAMK1G (human)): 102% | residual activity (PTK2B (human)): 94.3% | residual activity (CDK6 CCND1 (human)): 102% | residual activity (CDK9 CCNK (human)): 99.9% | residual activity (MAP2K2 (human)): 100% | residual activity (CLK1 (human)): 98.3% | residual activity (SRMS (human)): 97.1% | residual activity (MERTK (human)): 96.4% | residual activity (SRC (human)): 99.3% | residual activity (MAP3K2 (human)): 109% | residual activity (TAOK2 (human)): 108% | residual activity (CAMK2D (human)): 99.9% | residual activity (TEC (human)): 150% | residual activity (RPS6KA5 KD2 (human)): 103% | residual activity (FGFR2 (human)): 107% | residual activity (DYRK1A (human)): 79% | residual activity (TSSK2 (human)): 100% | residual activity (RPS6KA4 KD2 (human)): 99.4% | residual activity (FYN (human)): 113% | residual activity (ACVRL1 (human)): 100% | residual activity (CSNK1A1 (human)): 115%

Cc1ccc(S(=O)(=O)/C=C/C#N)cc1
residual activity (CAMK2G (human)): 103% | residual activity (NEK4 (human)): 94.3% | residual activity (EPHB4 (human)): 102% | residual activity (NEK11 (human)): 95.8% | residual activity (ABL1 (human)): 98.7% | residual activity (GSK3A (human)): 106% | residual activity (MAP3K10 (human)): 105% | residual activity (EPHA4 (human)): 86.1% | residual activity (SLK (human)): 101% | residual activity (BRSK2 (human)): 99.4% | residual activity (MAP4K5 (human)): 97.8% | residual activity (WNK2 (human)): 124% | residual activity (CSF1R (human)): 93.6% | residual activity (HIPK1 (human)): 105% | residual activity (CDK3 CCNE1 (human)): 99.7% | residual activity (PLK2 (human)): 103% | residual activity (PTK6 (human)): 93.1% | residual activity (RPS6KA2 KD1 KD2 (human)): 100% | residual activity (CDK7 CCNH MNAT1 (human)): 98.2% | residual activity (CDK6 CCND3 (human)): 104% | residual activity (CAMK1G (human)): 99.9% | residual activity (PTK2B (human)): 92.8% | residual activity (CDK6 CCND1 (human)): 91.4% | residual activity (CDK9 CCNK (human)): 112% | residual activity (MAP2K2 (human)): 91% | residual activity (CLK1 (human)): 107% | residual activity (SRMS (human)): 98.8% | residual activity (MERTK (human)): 96.4% | residual activity (SRC (human)): 102% | residual activity (MAP3K2 (human)): 91.8% | residual activity (TAOK2 (human)): 89.7% | residual activity (CAMK2D (human)): 102% | residual activity (TEC (human)): 144% | residual activity (RPS6KA5 KD2 (human)): 109% | residual activity (FGFR2 (human)): 102% | residual activity (DYRK1A (human)): 107% | residual activity (TSSK2 (human)): 103% | residual activity (RPS6KA4 KD2 (human)): 82.8% | residual activity (FYN (human)): 95.4% | residual activity (ACVRL1 (human)): 100% | residual activity (CSNK1A1 (human)): 95.6%
